Data as given in patent publication US8124624B2, “Substituted sulfonamide compounds” (Gruenenthal GmbH, priority 2008, dated 2012).

Assays:
B1R of the rat = molecular target: T1, B1R of the rat (Rattus norvegicus, UniProt P97583); experiment: FLIPR Ca2+ influx assay, B1R antagonism, rat (rB1R CHO K1 cells); format: cell-based; conditions: test substance 10 μM, CHO K1 cells stably transfected with rat B1R, agonist Des-Arg9-bradykinin at EC80, % inhibition compared with maximum achievable inhibition; for inhibition at 10 µM: read-out: B1R antagonism, rat [10 μM] % inhibition
T1 construct: expressed in transfected cells; host or cells: CHO K1 cells (rB1R cells)
T1 sequence (P97583 1-337): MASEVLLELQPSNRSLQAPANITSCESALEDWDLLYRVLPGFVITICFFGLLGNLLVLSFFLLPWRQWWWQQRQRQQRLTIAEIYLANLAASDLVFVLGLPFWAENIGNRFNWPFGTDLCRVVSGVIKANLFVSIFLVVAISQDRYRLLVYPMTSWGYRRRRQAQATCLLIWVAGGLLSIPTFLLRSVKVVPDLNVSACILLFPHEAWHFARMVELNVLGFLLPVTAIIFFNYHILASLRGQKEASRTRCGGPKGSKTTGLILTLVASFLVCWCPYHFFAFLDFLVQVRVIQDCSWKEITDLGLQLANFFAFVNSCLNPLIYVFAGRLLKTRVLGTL
In short: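 CHO K1 cells stably expressing human or rat B1R were loaded with Fluo-4, and Ca^2+ fluorescence was read on a FLIPR. After 10–20 min with test substance, agonist was added at EC80: Lys-Des-Arg^9-bradykinin for hB1R, Des-Arg^9-bradykinin for rB1R. % inhibition is relative to maximal inhibition; IC50 from multiple concentrations, n=2–3, N≥2.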

human B1R = molecular target: T2, human B1R (Homo sapiens, UniProt P46663); experiment: FLIPR Ca2+ influx assay, B1R antagonism, human (hB1R CHO K1 cells); format: cell-based; conditions: test substance 10 μM, CHO K1 cells stably transfected with human B1R, agonist Lys-Des-Arg9-bradykinin at EC80, % inhibition compared with maximum achievable inhibition; for inhibition at 10 µM: read-out: B1R antagonism, human [10 μM] % inhibition
T2 construct: expressed in transfected cells; host or cells: CHO K1 cells (hB1R cells)
T2 sequence (P46663 1-353): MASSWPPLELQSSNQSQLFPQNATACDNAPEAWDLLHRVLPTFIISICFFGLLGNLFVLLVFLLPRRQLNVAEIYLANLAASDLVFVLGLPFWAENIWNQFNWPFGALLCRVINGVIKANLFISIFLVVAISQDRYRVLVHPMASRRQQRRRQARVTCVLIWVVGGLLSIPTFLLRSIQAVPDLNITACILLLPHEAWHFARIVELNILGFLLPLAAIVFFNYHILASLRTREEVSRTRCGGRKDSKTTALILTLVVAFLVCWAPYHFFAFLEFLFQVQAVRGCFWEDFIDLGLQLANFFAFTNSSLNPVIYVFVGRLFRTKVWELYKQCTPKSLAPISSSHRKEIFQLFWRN
Experimental: The agonistic or antagonistic action of substances can be quantified on the bradykinin receptor 1 (B1R) of the species human and rat using ectopically expressing cell lines (CHO K1 cells) and with the aid of a Ca^2+-sensitive dye (Fluo-4) using a fluorescent imaging plate reader (FLIPR). The indication in % activation is based on the Ca^2+ signal after addition of Lys-Des-Arg^9-bradykinin (0.5 nM) or Des-Arg^9-bradykinin (100 nM). Antagonists lead to suppression of the Ca^2+ influx after the addition of the agonist. % Inhibition compared with the maximum achievable inhibition is indicated.
The agonistic or antagonistic action of substances can be determined on the bradykinin receptor 1 (B1R) of the species human and rat using the following assay. According to this assay, the Ca^2+ influx through the channel is quantified with the aid of a Ca^2+-sensitive dye (Fluo-4 type, Molecular Probes Europe BV, Leiden, Netherlands) using a Fluorescent Imaging Plate Reader (FLIPR, Molecular Devices, Sunnyvale, USA).
Chinese hamster ovary cells (CHO K1 cells) which have been stably transfected with the human B1R gene (hB1R cells) or with the B1R gene of the rat (rB1R cells) are used. For functional studies, the cells are plated out on black 96-well plates having a clear base (BD Biosciences, Heidelberg, Germany or Greiner, Frickenhausen, Germany) in a density of 20,000-35,000 cells/well. The cells are incubated overnight at 37° C. and with 5% CO2 in culture medium (hB1R cells: Nutrient Mixture Ham's F12, Gibco Invitrogen GmbH, Karlsruhe, Germany or DMEM, Sigma-Aldrich, Taufkirchen, Germany; rB1R cells: D-MEM/F12, Gibco Invitrogen GmbH, Karlsruhe, Germany), with 10 vol. % FBS (fetal bovine serum, Gibco Invitrogen GmbH, Karlsruhe, Germany or PAN Biotech GmbH, Aidenbach, Germany).
On the following day, the cells are loaded for 60 minutes at 37° C. with 2.13 μM Fluo-4 (Molecular Probes Europe BV, Leiden, Netherlands) in HBSS buffer (Hank's buffered saline solution, Gibco Invitrogen GmbH, Karlsruhe, Germany) […] (Sigma-Aldrich, Taufkirchen, Germany) and 10 mM HEPES (Sigma-Aldrich, Taufkirchen, Germany). The plates are then washed twice with HBSS buffer, and HBSS buffer additionally containing 0.1% BSA (bovine serum albumin; Sigma-Aldrich, Taufkirchen, Germany), 5.6 mM glucose and 0.05% gelatin (Merck KGaA, Darmstadt, Germany) is added to the plates. After incubation for a further 20 minutes at room temperature, the plates are inserted into the FLIPR for Ca^2+ measurement.
Alternatively, washing is carried out with buffer A (15 mM HEPES, 80 mM NaCl, 5 mM KCl, 1.2 mM CaCl2, 0.7 mM MgSO4, 2 g/l glucose, 2.5 mM probenecid) followed by loading with buffer A with added 2.5 μM Fluo-4 and 0.025% Pluronic F127 (Sigma-Aldrich, Taufkirchen, Germany). The cells are then washed twice with buffer A and incubated for 30 minutes at room temperature with buffer A additionally containing 0.05% BSA and 0.05% gelatin and are then inserted into the FLIPR for Ca^2+ measurement.
The Ca^2+-dependent fluorescence is measured before and after the addition of substances (λex=488 nm, λem=540 nm). Quantification is carried out by measuring the highest fluorescence intensity (FC, fluorescence counts) over time.
The FLIPR protocol consists of two substance additions. Test substances (10 μM) are first pipetted onto the cells and the Ca^2+ influx is compared with the control (hB1R: Lys-Des-Arg^9-bradykinin >=50 nM; rB1R: Des-Arg^9-bradykinin 10 μM). This gives the activation in %, based on the Ca^2+ signal after addition of Lys-Des-Arg^9-bradykinin (>=50 nM) or Des-Arg^9-bradykinin (10 μM). After 10-20 minutes' incubation, Lys-Des-Arg^9-bradykinin (hB1R) or Des-Arg^9-bradykinin (rB1R) is applied in the concentration of the EC80, and the influx of Ca^2+ is likewise determined. Antagonists lead to suppression of the Ca^2+ influx. The % inhibition compared with the maximum achievable inhibition is calculated. […]

Compound | B1R antagonism, rat [10 μM] % inhibition (B1R of the rat) | B1R antagonism, human [10 μM] % inhibition (human B1R) | inhibition at 10 µM (B1R of the rat) | inhibition at 10 µM (human B1R)
COc1cc(C)c(S(=O)(=O)N2CCCCC2COCC(=O)N2CCC(CCCN3CCCC3)(c3cccnc3)CC2)c(C)c1 (stereo not drawn) [Example 26, 2-[[1-[(4-Methoxy-2,6-dimethyl-phenyl)sulfonyl]-piperidin-2-yl]-methoxy]-1-[4-pyridin-3-yl-4-(3-pyrrolidin-1-yl-propyl)-piperidin-1-yl]-ethanone] | 103% | 100% |  | 
COc1cc(C)c(S(=O)(=O)N2CCCCC2COCC(=O)N2CCC(CCCN3CCCC3)(c3cccnc3)CC2)c(C)c1 (stereo not drawn) [Example 27, 2-[[1-[(4-Methoxy-2,6-dimethyl-phenyl)sulfonyl]-piperidin-2-yl]-methoxy]-1-[4-pyridin-3-yl-4-(3-pyrrolidin-1-yl-propyl)-piperidin-1-yl]-ethanone] | 102% | 100% |  | 
COc1cc(C)c(S(=O)(=O)N(C)CCOCC(=O)N2CCC(CCCN3CCCC3)(c3cccnc3)CC2)c(C)c1 [Example 29, 4-Methoxy-N,2,6-trimethyl-N-[2-[2-oxo-2-[4-pyridin-3-yl-4-(3-pyrrolidin-1-yl-propyl)-piperidin-1-yl]-ethoxy]-ethyl]-benzenesulfonic acid amide] | 101% | 100% |  | 
COc1cc(C)c(S(=O)(=O)N(C)CCOCC(=O)N2CCC(CCCN3CCCC3)(c3cccnc3)CC2)c(C)c1C [Example 31, 4-Methoxy-N,2,3,6-tetramethyl-N-[2-[2-oxo-2-[4-pyridin-3-yl-4-(3-pyrrolidin-1-yl-propyl)-piperidin-1-yl]-ethoxy]-ethyl]-benzenesulfonic acid amide] |  |  | 101% | 100%
COc1cc(C)c(S(=O)(=O)N(CCOCC(=O)N2CCC(CCCN3CCCC3)(c3cccnc3)CC2)Cc2ccccc2)c(C)c1 [Example 37, N-Benzyl-4-Methoxy-2,6-dimethyl-N-[2-[2-oxo-2-[4-pyridin-3-yl-4-(3-pyrrolidin-1-yl-propyl)-piperidin-1-yl]-ethoxy]-ethyl]-benzenesulfonic acid amide] |  |  | 103% | 100%
COc1cc(C)c(S(=O)(=O)N(CCOCC(=O)N2CCC(CCCN3CCCC3)(c3cccnc3)CC2)Cc2ccccc2)c(C)c1 [Example 38, N-Benzyl-4-Methoxy-2,6-dimethyl-N-[2-[2-oxo-2-[4-pyridin-3-yl-4-(3-pyrrolidin-1-yl-propyl)-piperidin-1-yl]-ethoxy]-ethyl]-benzenesulfonic acid amide] | 101% | 100% |  | 
O=C(COCC1CCCCN1S(=O)(=O)c1ccccc1C(F)(F)F)N1CCC(CCCN2CCCC2)(c2cccnc2)CC1 (stereo not drawn) [Example 41, 1-[4-Pyridin-3-yl-4-(3-pyrrolidin-1-yl-propyl)-piperidin-1-yl]-2-[[1-[[2-(trifluoromethyl)-phenyl]sulfonyl]-piperidin-2-yl]-methoxy]-ethanone] |  |  | 104% | 100%
O=C(COCC1CCCCN1S(=O)(=O)c1ccccc1C(F)(F)F)N1CCC(CCCN2CCCC2)(c2cccnc2)CC1 (stereo not drawn) [Example 42, 1-[4-Pyridin-3-yl-4-(3-pyrrolidin-1-yl-propyl)-piperidin-1-yl]-2-[[1-[[2-(trifluoromethyl)-phenyl]sulfonyl]-piperidin-2-yl]-methoxy]-ethanone] | 102% | 100% |  | 
COc1cc(C)c(S(=O)(=O)N(CCOCC(=O)N2CCC(CCCN3CCCC3)(c3cccnc3)CC2)c2ccccc2)c(C)c1 [Example 48, 4-Methoxy-2,6-Dimethyl-N-[2-[2-oxo-2-[4-pyridin-3-yl-4-(3-pyrrolidin-1-yl-propyl)-piperidin-1-yl]-ethoxy]-ethyl]-N-phenyl-benzenesulfonic acid amide] |  |  | 103% | 100%
COc1cc(C)c(S(=O)(=O)N2c3ccccc3CCC2COCC(=O)N2CCC(CCCN3CCCC3)(c3cccnc3)CC2)c(C)c1 (stereo not drawn) [Example 53, 2-[[1-[(4-Methoxy-2,6-dimethyl-phenyl)sulfonyl]-1,2,3,4-tetrahydro-quinolin-2-yl]-methoxy]-1-[4-pyridin-3-yl-4-(3-pyrrolidin-1-yl-propyl)-piperidin-1-yl]-ethanone] |  |  | 102% | 100%
COc1cc(C)c(S(=O)(=O)N2CCCCC2CCCC(=O)N2CCC(CCCN3CCCC3)(c3cccnc3)CC2)c(C)c1 (stereo not drawn) [Example 60, 4-[1-[(4-Methoxy-2,6-dimethyl-phenyl)sulfonyl]-piperidin-2-yl]-1-[4-pyridin-3-yl-4-(3-pyrrolidin-1-yl-propyl)-piperidin-1-yl]-butan-1-one] |  |  | 104% | 100%
COc1cc(C)c(S(=O)(=O)N2CCCCC2CCCC(=O)N2CCC(CCCN3CCCC3)(c3cccnc3)CC2)c(C)c1 (stereo not drawn) [Example 61, 4-[1-[(4-Methoxy-2,6-dimethyl-phenyl)sulfonyl]-piperidin-2-yl]-1-[4-pyridin-3-yl-4-(3-pyrrolidin-1-yl-propyl)-piperidin-1-yl]-butan-1-one] | 103% | 100% |  | 
